# Residues, ends and D or L forms follow the SMILES beside them.
# Test system: drug-resistant Mycobacterium tuberculosis
# Details: drug-resistant Mycobacterium tuberculosis (PAS, streptomycin, INH); peptide 10 micrograms per ml; seven days
smiles,measurement,value
"C[C@@H](O)[C@H](N)C(=O)N[C@@H](CC(=O)O)C(=O)N[C@H](C(=O)N[C@@H](CO)C(=O)N[C@@H](Cc1c[nH]cn1)C(=O)N[C@@H](Cc1c[nH]cn1)C(=O)N[C@@H](CC(=O)O)C(=O)N[C@@H](CCC(N)=O)C(=O)N[C@@H](CC(=O)O)C(=O)N[C@@H](Cc1c[nH]cn1)C(=O)N1CCC[C@H]1C(=O)N[C@H](C(=O)N[C@@H](Cc1ccccc1)C(=O)N[C@@H](CC(N)=O)C(=O)O)[C@@H](C)O)[C@@H](C)O [FGRP, Thr-Asp-Thr-Ser-His-His-Asp-Gln-Asp-His-Pro-Thr-Phe-Asn-OH] (H-TDTSHHDQDHPTFN-OH)",% inhibition,0.0%

# Reference: patent US20100197602A1, “USE OF FOLLICULAR GONADOTROPIN RELEASING PEPTIDE AS A THERAPEUTIC AGENT IN THE TREATMENT OF STREPTOCOCCUS PNEUMONIAE INFECTION” (priority 2007, published 2010)
